According to PMC11984586, “A novel spider toxin as a selective antagonist of the Kv1 subfamily of voltage-gated potassium channels through gating modulation” (The Journal of Biological Chemistry, 2025):
Bridge positions count the residues as written; N and C are the ends. Peptide text beside a SMILES is read from it.

Tests used:
Type in all cases: cell-based
hKv1.7 = target: T1, hKv1.7 (Homo sapiens, UniProt Q96RP8); experiment: Whole-cell patch clamp, Kv1.7 ionic current in CHO-K1 cells; conditions: mean ± SD
T1 construct: expressed in transfected cells; host or cells: CHO-K1
T1 sequence (Q96RP8 whole entry): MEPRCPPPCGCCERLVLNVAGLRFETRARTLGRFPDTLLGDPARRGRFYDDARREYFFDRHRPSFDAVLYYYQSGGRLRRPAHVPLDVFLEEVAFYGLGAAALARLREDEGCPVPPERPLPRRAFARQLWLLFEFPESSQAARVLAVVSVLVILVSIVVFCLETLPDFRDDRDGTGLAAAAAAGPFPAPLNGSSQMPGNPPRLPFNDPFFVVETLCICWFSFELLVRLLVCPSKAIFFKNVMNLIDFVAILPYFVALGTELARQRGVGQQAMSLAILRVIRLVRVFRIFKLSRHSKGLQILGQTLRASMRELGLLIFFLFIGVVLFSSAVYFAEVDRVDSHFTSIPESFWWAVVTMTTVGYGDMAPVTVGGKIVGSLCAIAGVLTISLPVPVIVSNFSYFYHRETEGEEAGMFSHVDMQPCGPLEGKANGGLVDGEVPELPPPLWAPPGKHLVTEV
Procedure: (§1) The cDNA of hKv1.1, hKv1.2, hKv1.3, rKv1.4, hKv1.5, mKv1.6, and hKv1.7 were subcloned into mammalian expression vectors pcDNA3.1 or pCMV-blank vectors, as well as other plasmids described previously ([35]). Channel mutants were generated by site-directed mutations. Briefly, the parental channel plasmid was amplified using a pair of oppositely directed primers harboring the designed mutation site, with KOD Fx (TOYOBO Co, Ltd). The resulting PCR mix was treated with FastDigest DpnI (Thermo Fisher Scientific) to remove the methylated template. Ten microliters of the digested product was then used to transform 100 μl E. coli DH5α competent cells. […]
(§2) CHO-K1 cells were selected for expressing Kv channels due to their lack of endogenous Kv channels, while HEK293 or ND7/23 cells were used for Nav and Cav channel expression. […] After 4 to 6 h transfection, cells were seeded onto poly-lysine–coated coverslips, and 24 to 36 h later, transfected cells were ready for patch-clamp analysis. […]
(§3) For Kv current recordings, the bath solution contained (in mM) the following: 140 NaCl, 5 KCl, 1 MgCl2, 2 CaCl2, 10 glucose, and 10 Hepes (pH 7.3, adjusted with NaOH), and the pipette solution contained (in mM) the following: 140 KCl, 2.5 MgCl2, 11 EGTA, and 10 Hepes (pH 7.3, adjusted with KOH). […] The steady-state fast inactivation of Kv1.3 was measured using a two-pulses protocol. […]

mKv1.6 = target: T2, mKv1.6 (Mus musculus, UniProt Q61923); experiment: Whole-cell patch clamp, Kv1.6 ionic current in CHO-K1 cells; conditions: +30 mV, 500 ms, holding −80 mV, mean ± SD, n = 4–7, read-out: IC50, inhibition of Kv1.6 current (full inhibition)
T2 construct: expressed in transfected cells; host or cells: CHO-K1
T2 sequence (Q61923 whole entry): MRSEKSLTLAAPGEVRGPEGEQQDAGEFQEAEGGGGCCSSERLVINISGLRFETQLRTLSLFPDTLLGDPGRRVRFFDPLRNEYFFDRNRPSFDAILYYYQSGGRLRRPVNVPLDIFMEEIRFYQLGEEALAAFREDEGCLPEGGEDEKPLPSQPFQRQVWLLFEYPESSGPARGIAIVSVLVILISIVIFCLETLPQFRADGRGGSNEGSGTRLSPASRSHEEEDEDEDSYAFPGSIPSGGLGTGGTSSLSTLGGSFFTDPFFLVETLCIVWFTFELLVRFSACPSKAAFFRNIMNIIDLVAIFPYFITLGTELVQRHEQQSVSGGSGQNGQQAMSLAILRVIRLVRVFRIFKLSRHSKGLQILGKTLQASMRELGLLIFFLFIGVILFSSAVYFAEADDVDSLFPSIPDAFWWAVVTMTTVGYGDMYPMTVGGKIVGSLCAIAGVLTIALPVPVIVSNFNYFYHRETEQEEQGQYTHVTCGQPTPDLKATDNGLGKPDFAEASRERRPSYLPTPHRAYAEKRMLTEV
Procedure: as §1, §2, §3

Cav3.2-3.3 = experiment: Selectivity patch clamp, non-Kv1 channels; conditions: 10 μM MrVIII; n = 3–5
Procedure: (§4) CHO-K1 cells were selected for expressing Kv channels due to their lack of endogenous Kv channels, while HEK293 or ND7/23 cells were used for Nav and Cav channel expression. CHO-K1 cells were cultured in a Dulbecco's modified Eagle's medium/Ham's F-12 nutrient mixture (DMEM-F12) medium, and HEK293T and ND7/23 cells in DMEM medium, all supplemented with 10% fetal bovine serum and 1% penicillin-streptomycin (all from Gibco, Thermo Fisher Scientific, Inc) under standard conditions (37 °C, 5% CO2, and saturated humidity). These cell lines were purchased from Stem Cell Bank, Chinese Academy of Sciences. Channel plasmids were cotransfected with pEGFP-N1 (encoding GFP) into the respective cells using lipofectamine 2000, following the manufacturer's instructions (Invitrogen, Thermo Fisher Scientific, Inc.). Nav1.9-GFP plasmid was transfected into ND7/23 using the X-tremeGENE HP DNA Transfection Reagent (Roche). After 4 to 6 h transfection, cells were seeded onto poly-lysine–coated coverslips, and 24 to 36 h later, transfected cells were ready for patch-clamp analysis.
(§5) Patch clamp experiments were conducted using an electrophysiology platform comprising a MultiClamp 700B amplifier and an Axon Digidata 1550 AD/DA convertor (Axon Instruments). Data acquisition was performed with pClamp 10.5 software (Axon Instruments). All experiments were performed at room temperature.

Cav2.2 = experiment: Selectivity patch clamp, non-Kv1 channels; conditions: 10 μM MrVIII; n = 3–5
Procedure: as §4, §5

Cav1.3 = experiment: Selectivity patch clamp, non-Kv1 channels; conditions: 10 μM MrVIII; n = 3–5
Procedure: as §4, §5

Nav1.7-1.9 = experiment: Selectivity patch clamp, non-Kv1 channels; conditions: 10 μM MrVIII; n = 3–5
Procedure: as §4, §5

Nav1.2 = experiment: Selectivity patch clamp, non-Kv1 channels; conditions: 10 μM MrVIII; n = 3–5
Procedure: as §4, §5

Nav1.4-1.5 = experiment: Selectivity patch clamp, non-Kv1 channels; conditions: 10 μM MrVIII; n = 3–5
Procedure: as §4, §5

Kv7.3 = experiment: Selectivity patch clamp, non-Kv1 channels; conditions: 10 μM MrVIII; n = 3–5
Procedure: as §4, §5
(§6) For Kv current recordings, the bath solution contained (in mM) the following: 140 NaCl, 5 KCl, 1 MgCl2, 2 CaCl2, 10 glucose, and 10 Hepes (pH 7.3, adjusted with NaOH), and the pipette solution contained (in mM) the following: 140 KCl, 2.5 MgCl2, 11 EGTA, and 10 Hepes (pH 7.3, adjusted with KOH). Series resistance was maintained below 10 MΩ and compensated to 80%. Concentration–response curves were fitted by the Hill equation to determine the toxin's potency. Whole cell conductance (G) at each depolarizing voltage (V) was determined using the equation: G = I/(V−Vrev), where I is the current amplitude, and Vrev is the reversal potential. The reversal potential for K^+ current was estimated to be −85.6 mV using the Nernst equation. G-V curves were obtained by plotting the normalized conductance as a function of V and fitted by the Boltzmann equation: y = 1/(1+ exp((Va-V)/k)), which Va is the midpoint voltage, V is the test potential, and k is the slope factor. The steady-state fast inactivation of Kv1.3 was measured using a two-pulses protocol. The cell was held at −120 mV, and a train of conditional voltages (−120–40 mV in 10 mV increments, 60 s) were applied to induce channel inactivation, followed by a +60 mV test pulse (300 ms) to assess the proportion of noninactivated channels. The sweep interval was set to 30 s. Currents at the test pulse (I) were normalized to the maximum value (Imax) and plotted as a function of the conditional voltage (V). The curve was fitted by the Boltzmann equation: I/Imax = A+(1 − A)/(1+exp ((V−Vh)/K)), where Vh is the half-maximum inactivation voltage, A represents the minimum channel availability, and k is the slope factor.

Kv4.1-4.3 = experiment: Selectivity patch clamp, non-Kv1 channels; conditions: 10 μM MrVIII; n = 3–5
Procedure: as §4, §5, §6

Kv2.1 = experiment: Selectivity patch clamp, non-Kv1 channels; conditions: 10 μM MrVIII; n = 3–5
Procedure: as §4, §5, §6

Kv3.1-3.3 = experiment: Selectivity patch clamp, non-Kv1 channels; conditions: 10 μM MrVIII; n = 3–5
Procedure: as §4, §5, §6

Kv7.1 = experiment: Selectivity patch clamp, non-Kv1 channels; conditions: 10 μM MrVIII; n = 3–5
Procedure: as §4, §5, §6

## CC[C@H](C)[C@@H]1NC(=O)[C@H](Cc2ccc(O)cc2)NC(=O)[C@H](CCC(N)=O)NC(=O)[C@@H]2CCCN2C(=O)[C@@H]2CSSC[C@H](NC(=O)[C@H](C)NC(=O)[C@H](CO)NC(=O)[C@H](CCC(=O)O)NC(=O)[C@H](CCC(=O)O)NC(=O)[C@@H](N)[C@@H](C)O)C(=O)NCC(=O)NCC(=O)N[C@@H](Cc3ccccc3)C(=O)N[C@@H](CC(N)=O)C(=O)N[C@@H](C)C(=O)N[C@@H](CCCNC(=N)N)C(=O)N[C@H]3CSSC[C@H](NC1=O)C(=O)N[C@@H](CCCCN)C(=O)NCC(=O)N[C@@H](Cc1c[nH]c4ccccc14)C(=O)N[C@@H](CCCNC(=N)N)C(=O)N[C@@H]([C@@H](C)O)C(=O)N[C@@H](CCCCN)C(=O)N[C@@H](CCCNC(=N)N)C(=O)N[C@H](C(=O)N[C@@H](CC(C)C)C(=O)N[C@@H](CC(N)=O)C(=O)N1CCC[C@H]1C(=O)O)CSSC[C@H](NC(=O)[C@H](CCCCN)NC(=O)[C@H](Cc1c[nH]cn1)NC(=O)[C@H](CC(C)C)NC(=O)[C@@H]1CCCN1C3=O)C(=O)N2 [MrVIII] (H-TEESACGGFNARCPLHKCCPQYICKGWRTKRCLNP-OH; disulfide 6-19, 13-24, 18-32; N-terminus and C-terminus assumed)
hKv1.7; 10 μM (saturating), current at 495 ms, +30 mV
  inhi%(495 ms), Kv1.7 current: 33.3 ± 3.0%
hKv1.7; current measured at 50 ms of a 500 ms depolarization to +30 mV, n = 4–7
  IC50: 199 ± 50.3 nM
mKv1.6
  IC50: 13.4 ± 6.7 nM
Cav3.2-3.3
  inhibition of Cav3.2-3.3 currents: did not remarkably inhibit
Cav2.2
  inhibition of Cav2.2 current: did not remarkably inhibit
Cav1.3
  inhibition of Cav1.3 current: did not remarkably inhibit
Nav1.7-1.9
  inhibition of Nav1.7-1.9 currents: did not remarkably inhibit
Nav1.2
  inhibition of Nav1.2 current: did not remarkably inhibit
Nav1.4-1.5
  inhibition of Nav1.4-1.5 currents: did not remarkably inhibit
Kv7.3
  inhibition of Kv7.3 current: did not remarkably inhibit
Kv4.1-4.3
  inhibition of Kv4.1-4.3 currents: did not remarkably inhibit
Kv2.1
  inhibition of Kv2.1 current: did not remarkably inhibit
Kv3.1-3.3
  inhibition of Kv3.1-3.3 currents: did not remarkably inhibit
Kv7.1
  inhibition of Kv7.1 current: did not remarkably inhibit
